Data published in article PMC5840332, “Disease-associated missense mutations in GluN2B subunit alter NMDA receptor ligand binding and ion channel properties” (Nature Communications, 2018).

Tests used:
[1] = tested on: hippocampal neurons expressing GluN2B^V618G; test: Evoked NMDAR-mediated EPSCs in transfected hippocampal neurons; assay type: cell-based, rat; conditions: 300 μM memantine, 0 Mg^2+
From the text: (§1) Dissected hippocampi were dissociated from E18 Sprague Dawley rat embryos using procedures and protocols that have been approved by the UK Home Office. They were dissociated into single cells using 0.1% w/v trypsin and serially triturated with flame-polished Pasteur pipettes. […] Neurons were transfected after 10 days in vitro (DIV) with either cDNAs for the GluN2B WT or mutants together with DsRed using Effectene (Qiagen) and recorded at 13–15 DIV.
(§2) Cells were voltage clamped at −60 mV.
(§3) NMDAR-mediated EPSCs were evoked by direct stimulation of single neighbouring neurons using a loose cell-attached patch electrode filled with Krebs and containing a bipolar stimulating electrode. […] For the pharmacological characterisation of NMDAR-mediated EPSCs, the selective antagonists ifenprodil (+)-hemitartrate (Santacruz biotechnology) and TCN213 (Tocris) were used.
(§4) EPSCs were analysed offline using WinWCP (Strathclyde Electrophysiology Software, UK). Peak EPSC amplitude, the area of the EPSC (charge transfer) and EPSC decays were measured. The decay time constants (τ) were determined by fitting the EPSC decays with a double exponential function. The weighted time constant (τw) was calculated using the following equation, where A indicates the relative area of each time constant.3 τw=((A1.τ1)+(A2.τ2))∕A1+A2.

[2] = tested on: hippocampal neurons expressing GluN2B^N615I; test: as above; assay type: cell-based, rat; conditions: 30 μM memantine, 0 Mg^2+
From the text: as §1, §2, §3, §4

[3] = tested on: hippocampal neurons expressing GluN2B^WT; test: as above; assay type: cell-based, rat; conditions: 30 μM memantine, 0 Mg^2+
From the text: as §1, §2, §3, §4

GluN1–GluN2B^V618G = GluN1–GluN2B^V618G (Homo sapiens, UniProt Q05586+Q13224, V618G); test: Memantine block of glutamate currents in HEK293 cells (concentration–inhibition, I–V, trapping model); assay type: cell-based; design: expressed in transfected cells; host or cells: HEK293
Chain of GluN1–GluN2B^V618G (Q13224 27-1484 V618G, other chains not shown): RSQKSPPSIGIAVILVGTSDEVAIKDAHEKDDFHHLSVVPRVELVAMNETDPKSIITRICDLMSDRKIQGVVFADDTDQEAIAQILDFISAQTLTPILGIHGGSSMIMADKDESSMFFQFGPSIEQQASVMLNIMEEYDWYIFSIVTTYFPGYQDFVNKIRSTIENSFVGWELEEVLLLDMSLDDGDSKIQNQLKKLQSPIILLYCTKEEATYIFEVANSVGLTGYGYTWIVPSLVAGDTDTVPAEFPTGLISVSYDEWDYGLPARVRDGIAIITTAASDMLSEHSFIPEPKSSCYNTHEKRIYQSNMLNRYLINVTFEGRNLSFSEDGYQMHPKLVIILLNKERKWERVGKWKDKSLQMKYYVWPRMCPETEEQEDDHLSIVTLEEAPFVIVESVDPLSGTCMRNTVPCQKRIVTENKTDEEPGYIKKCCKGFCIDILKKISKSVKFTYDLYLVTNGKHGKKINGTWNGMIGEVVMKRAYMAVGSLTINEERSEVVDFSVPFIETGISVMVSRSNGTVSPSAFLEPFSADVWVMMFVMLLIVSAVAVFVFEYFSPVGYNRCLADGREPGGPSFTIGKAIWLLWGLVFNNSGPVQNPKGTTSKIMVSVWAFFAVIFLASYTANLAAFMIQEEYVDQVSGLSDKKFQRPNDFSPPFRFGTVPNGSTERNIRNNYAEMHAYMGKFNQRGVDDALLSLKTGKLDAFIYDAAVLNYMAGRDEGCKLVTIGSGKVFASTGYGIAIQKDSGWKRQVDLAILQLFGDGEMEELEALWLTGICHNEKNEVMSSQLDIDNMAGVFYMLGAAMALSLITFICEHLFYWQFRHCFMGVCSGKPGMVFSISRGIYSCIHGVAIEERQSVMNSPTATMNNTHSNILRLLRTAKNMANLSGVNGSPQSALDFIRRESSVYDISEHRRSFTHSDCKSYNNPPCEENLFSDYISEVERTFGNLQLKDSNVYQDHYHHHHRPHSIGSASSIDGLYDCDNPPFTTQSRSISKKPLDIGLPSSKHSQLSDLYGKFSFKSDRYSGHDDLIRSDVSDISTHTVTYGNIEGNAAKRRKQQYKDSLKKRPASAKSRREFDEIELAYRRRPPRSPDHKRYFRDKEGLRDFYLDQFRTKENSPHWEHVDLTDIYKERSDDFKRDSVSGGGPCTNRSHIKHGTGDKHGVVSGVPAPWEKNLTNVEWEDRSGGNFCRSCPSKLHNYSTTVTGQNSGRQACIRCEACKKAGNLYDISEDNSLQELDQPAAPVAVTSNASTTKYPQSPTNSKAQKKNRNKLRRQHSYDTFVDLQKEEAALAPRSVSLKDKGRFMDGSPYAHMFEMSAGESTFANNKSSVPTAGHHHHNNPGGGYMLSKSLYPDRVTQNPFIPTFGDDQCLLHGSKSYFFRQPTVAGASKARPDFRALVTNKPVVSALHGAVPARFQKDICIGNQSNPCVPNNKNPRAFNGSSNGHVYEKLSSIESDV
Description: (§5) To examine voltage-dependent block of NMDARs, HEK293 cells were voltage clamped at −30 mV, and currents recorded following a voltage (10 mV) step protocol from −90 to +90 mV. […] The current induced by the agonists was determined by subtracting the leak current before plotting the I–V relationship.
(§6) To explain the block of the NMDAR we adopted a trapping based model (Table 2) whereby the antagonist can remain bound to its site (e.g. in the channel) after agonist dissociation.
(§7) The values of k+bo(0 mV) and k+bi(0 mV) were fixed at 5 × 10^7 M^-1 s^-1. […] This allowed k−bo and δMg to be estimated independently. For the permeation model (see below), the same principle was used to define the ion binding rate (k+bi) from the inside of the channel.

GluN1–GluN2B^WT = GluN1–GluN2B^WT (Homo sapiens, UniProt Q05586+Q13224); test: as above; assay type: cell-based; design: expressed in transfected cells; host or cells: HEK293; conditions: for δMem, fraction of membrane potential sensed by memantine: trapping block model fit
Chain of GluN1–GluN2B^WT (Q13224 27-1484, other chains not shown): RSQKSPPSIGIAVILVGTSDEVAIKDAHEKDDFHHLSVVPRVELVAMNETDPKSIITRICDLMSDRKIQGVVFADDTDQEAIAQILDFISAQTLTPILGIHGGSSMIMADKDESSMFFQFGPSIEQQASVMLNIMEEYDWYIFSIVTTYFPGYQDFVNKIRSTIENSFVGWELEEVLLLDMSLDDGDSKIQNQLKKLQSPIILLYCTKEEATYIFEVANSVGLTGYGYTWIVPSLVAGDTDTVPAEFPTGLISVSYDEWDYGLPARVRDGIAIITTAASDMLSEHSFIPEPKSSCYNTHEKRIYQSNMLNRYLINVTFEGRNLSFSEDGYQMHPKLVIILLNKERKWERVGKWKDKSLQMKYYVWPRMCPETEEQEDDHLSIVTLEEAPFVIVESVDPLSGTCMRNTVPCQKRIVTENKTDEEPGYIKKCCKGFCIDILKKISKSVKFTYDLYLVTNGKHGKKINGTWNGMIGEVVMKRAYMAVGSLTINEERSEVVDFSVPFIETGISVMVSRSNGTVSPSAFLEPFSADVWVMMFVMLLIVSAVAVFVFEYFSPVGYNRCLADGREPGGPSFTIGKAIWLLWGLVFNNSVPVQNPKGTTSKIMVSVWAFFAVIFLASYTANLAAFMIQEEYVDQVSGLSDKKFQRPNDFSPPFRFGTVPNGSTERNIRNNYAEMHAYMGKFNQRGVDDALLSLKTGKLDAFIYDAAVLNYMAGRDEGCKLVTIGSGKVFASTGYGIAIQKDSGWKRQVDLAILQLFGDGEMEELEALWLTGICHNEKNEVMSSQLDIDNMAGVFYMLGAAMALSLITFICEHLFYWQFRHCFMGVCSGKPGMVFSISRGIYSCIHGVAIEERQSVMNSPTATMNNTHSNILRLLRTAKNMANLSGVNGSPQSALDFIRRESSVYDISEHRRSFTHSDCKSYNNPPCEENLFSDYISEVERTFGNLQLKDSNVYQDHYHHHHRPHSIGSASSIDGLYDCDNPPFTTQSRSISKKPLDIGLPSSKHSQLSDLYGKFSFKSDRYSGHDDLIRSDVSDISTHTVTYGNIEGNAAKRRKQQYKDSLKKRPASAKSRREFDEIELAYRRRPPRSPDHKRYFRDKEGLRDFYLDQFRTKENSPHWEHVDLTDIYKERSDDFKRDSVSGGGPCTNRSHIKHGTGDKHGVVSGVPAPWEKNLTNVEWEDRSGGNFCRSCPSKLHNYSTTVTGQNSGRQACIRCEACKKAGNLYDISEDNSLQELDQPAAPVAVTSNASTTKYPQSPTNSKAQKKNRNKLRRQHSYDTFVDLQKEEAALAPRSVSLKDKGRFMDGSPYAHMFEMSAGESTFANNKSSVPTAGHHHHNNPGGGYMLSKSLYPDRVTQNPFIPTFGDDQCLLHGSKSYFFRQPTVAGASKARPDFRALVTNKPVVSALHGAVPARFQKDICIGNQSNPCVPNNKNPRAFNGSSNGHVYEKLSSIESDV
Description: as §5, §6, §7

GluN1–GluN2B^N615I = GluN1–GluN2B^N615I (Homo sapiens, UniProt Q05586+Q13224, N615I); test: as above; assay type: cell-based; design: expressed in transfected cells; host or cells: HEK293
Chain of GluN1–GluN2B^N615I (Q13224 27-1484 N615I, other chains not shown): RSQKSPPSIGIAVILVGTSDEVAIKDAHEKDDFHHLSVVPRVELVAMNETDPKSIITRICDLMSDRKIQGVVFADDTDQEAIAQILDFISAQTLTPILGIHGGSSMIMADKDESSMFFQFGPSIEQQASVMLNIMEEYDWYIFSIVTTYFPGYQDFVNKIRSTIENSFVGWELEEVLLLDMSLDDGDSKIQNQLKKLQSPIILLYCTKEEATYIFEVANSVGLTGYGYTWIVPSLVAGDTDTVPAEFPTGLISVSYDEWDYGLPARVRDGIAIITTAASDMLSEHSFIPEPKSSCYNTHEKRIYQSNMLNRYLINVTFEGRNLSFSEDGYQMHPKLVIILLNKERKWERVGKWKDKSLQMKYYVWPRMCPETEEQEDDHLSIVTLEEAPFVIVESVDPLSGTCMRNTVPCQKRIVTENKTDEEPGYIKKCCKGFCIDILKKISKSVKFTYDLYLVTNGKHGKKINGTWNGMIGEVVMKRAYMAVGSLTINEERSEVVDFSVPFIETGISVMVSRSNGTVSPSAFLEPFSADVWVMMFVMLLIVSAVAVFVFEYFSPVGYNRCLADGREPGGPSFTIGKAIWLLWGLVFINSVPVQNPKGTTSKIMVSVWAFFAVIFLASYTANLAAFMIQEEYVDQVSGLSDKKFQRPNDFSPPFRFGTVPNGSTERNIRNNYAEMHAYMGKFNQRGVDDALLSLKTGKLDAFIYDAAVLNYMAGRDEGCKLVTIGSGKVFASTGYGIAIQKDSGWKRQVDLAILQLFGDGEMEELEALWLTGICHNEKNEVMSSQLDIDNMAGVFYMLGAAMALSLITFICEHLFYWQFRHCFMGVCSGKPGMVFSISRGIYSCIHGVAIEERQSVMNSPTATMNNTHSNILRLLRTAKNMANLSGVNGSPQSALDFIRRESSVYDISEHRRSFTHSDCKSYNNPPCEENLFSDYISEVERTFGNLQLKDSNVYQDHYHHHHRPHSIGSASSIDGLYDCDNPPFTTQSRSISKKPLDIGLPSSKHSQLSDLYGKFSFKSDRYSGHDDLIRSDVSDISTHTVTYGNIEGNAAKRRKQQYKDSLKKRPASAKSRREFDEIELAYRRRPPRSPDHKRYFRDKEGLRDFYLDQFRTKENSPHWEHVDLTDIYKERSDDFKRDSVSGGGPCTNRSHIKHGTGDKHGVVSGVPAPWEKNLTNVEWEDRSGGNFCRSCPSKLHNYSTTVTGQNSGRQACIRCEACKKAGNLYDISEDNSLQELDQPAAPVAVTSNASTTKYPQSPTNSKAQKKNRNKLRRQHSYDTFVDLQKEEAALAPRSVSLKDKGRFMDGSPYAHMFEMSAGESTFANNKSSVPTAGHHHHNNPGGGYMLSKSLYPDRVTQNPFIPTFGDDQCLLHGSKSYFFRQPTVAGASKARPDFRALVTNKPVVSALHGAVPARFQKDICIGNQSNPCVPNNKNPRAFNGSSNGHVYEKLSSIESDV
Description: as §5, §6, §7

[4] = Memantine pKa and ionisation; assay type: physicochemical
[5] = after removal of 10 μM glutamate + 10 μM glycine, range of memantine concentrations

Question: With `CC12CC3CC(C)(C1)CC(N)(C3)C2` [Memantine, memantine] as the molecule, how does the “Inhibition of peak EPSC amplitude and charge transfer by memantine” value (“Inhibition” for short) [1] read?
Answer: inhibited to a comparable extent

Question: And the “Inhibition” value [2]?
Answer: inhibited to a comparable extent

Question: What about the “Inhibition” value [3] of the same molecule?
Answer: inhibited to a comparable extent

Question: What about the “Effect of memantine on deactivation time constant (τ)” value (shortened to “Effect of memantine”) (GluN1–GluN2B^V618G; [5]) of the same molecule?
Answer: did not affect

Question: And the “δMem, fraction of membrane potential sensed by memantine” value (“δMem, fraction” for short) (GluN1–GluN2B^V618G; trapping block model fit)?
Answer: 0.42 ± 0.03

Question: What about the “Effect of memantine” value (GluN1–GluN2B^WT; [5]) of the same molecule?
Answer: did not affect

Question: And the “δMem, fraction” value (GluN1–GluN2B^WT)?
Answer: 0.65 ± 0.026

Question: And the “δMem, fraction” value (GluN1–GluN2B^WT; listed as memantine)?
Answer: 0.65 ± 0.03

Question: What about the “Effect of memantine” value (GluN1–GluN2B^N615I; [5]) of the same molecule?
Answer: did not affect

Question: What about the “δMem, fraction” value (GluN1–GluN2B^N615I; trapping block model fit) of the same molecule?
Answer: 0.42 ± 0.11

Question: What about the “Fraction charged at physiological pH” value [4] of the same molecule?
Answer: 99.95%
